Values after ≈ are worked out from the molar mass of the structure shown. Like-named read-outs stand apart in the source and are kept apart here.
Tests used:
Staphylococcus aureus = assay: Macro broth dilution MIC, Staphylococcus aureus isolates (Test 1); assay type: cell-based; details: 24 h, read after 24 hours, read-out: Minimum Inhibitory Concentration
Description: (§1) Compounds were tested against five isolates of Staphylococcus aureus and five isolates of Group D Enterococcus. The bacteria used were isolated from patients at the Walter Reed Army Medical Center, Washington, D.C. The test procedure used was the macro broth dilution method in duplicate as outlined by J. C. Sherris on pages 414-415 in "Manual of Clinical Microbiology," 2nd ed., E. Lennette, E. H. Spaulding, and J. P. Truant, Ed. (American Society for Microbiology, Washington, D.C., 1974). Each compound was dissolved in DMSO (12.8 mg/mL) and then diluted with Mueller-Hinton broth to obtain the desired dilutions. Tubes containing the highest quantities of DMSO with no compound present were run as controls.

Neisseria meningitidis = assay: Macro broth dilution MIC, Neisseria meningitidis isolates (Test 2); assay type: cell-based; details: Neisseria meningitidis, 24 h, read after 24 hours, read-out: Minimum Inhibitory Concentration
Description: Compounds were tested against five isolates of Neisseria meningitidis. The bacterial isolates were provided by the Department of Bacterial Diseases of the Walter Reed Army Institute of Research. The test procedure used was the macro broth dilution method in duplicate outlined by J. C. Sherris on pages 414-415 (loc. cit.). The test compounds and controls were prepared as in Test 1 above. Ampicillin and penicillin standards were initially diluted as described by J. C. Sherris on pages 411-412 (loc. cit.) followed by dilution with Mueller-Hinton broth. The tubes were incubated at 37° C. under 5-10% carbon dioxide.

Group D Enterococcus = assay: Macro broth dilution MIC, Group D Enterococcus isolates (Test 1); assay type: cell-based; details: 24 h, read after 24 hours, read-out: Minimum Inhibitory Concentration
Description: as §1

[1] = test system: Mycobacterium intracellulare; assay: Broth dilution MIC, Mycobacterium intracellulare strains (Test 6); assay type: cell-based; details: read-out: Minimum Inhibitory Concentration
Neisseria gonorrhoeae = assay: Agar dilution MIC, Neisseria gonorrhoeae isolates (Test 3); assay type: cell-based; details: 24 h, read-out: Minimum Inhibitory Concentration
Description: Compounds were tested against six Neisseria gonorrhoeae isolates. The bacteria used were provided by the Department of Bacterial Diseases of the Walter Reed Army Institute of Research. The test procedure used was the agar dilution method in duplicate as outlined by J. C. Sherris on pages 411-412 (loc. cit.). GC Medium (Difco) with a 2% defined supplement added as described by D. S. Kellogg et al. [J. Bact. 85:1274-1279 (1963)] was used as the media. The compounds were dissolved in DMSO (1.0 mg/mL), diluted with GC broth (GC Medium without agar) to the appropriate concentration, and added to the GC Medium at 55°-56° C. The latter was then poured and allowed to solidify. A penicillin standard was also prepared with initial dilutions as described by J. C. Sherris followed by dilutions with GC broth and addition to the GC Medium at 55°-56° C. as above. The inoculum was 1:200 GC broth dilution of a suspension of colony isolates after the suspension was adjusted visually to the turbidity standard described by J. M. Matsen and A. L. Barr on page 422 in "Manual of Clinical Microbiology," 2nd ed., E. Lennette, E. H. Spaulding, and J. P. Truant, Ed. (American Society for Microbiology, Washington, D.C., 1974). The plates were inoculated with a replicator and incubated at 37° C. under 5-10% carbon dioxide.

[2] = test system: Plasmodium berghei KBG 173; assay: In vivo antimalarial activity in mice (Test 5); design: key to In vivo Antimalarial Activity: C: Mice surviving 60 days are considered cured; Active: Activity is defined as a 100% increase in the mean survival time of the treated mice compared to the control group; Toxicity is defined as a decrease in the mean survival time of the treated mice as compared to the control group
Description: Compounds were tested against Plasmodium berghei KBG 173 malaria in mice following the procedure described by T. S. Osdene, P. B. Russell, and L. Rane [J. Med. Chem. 10:431-434 (1967)]. Five mice were tested at each dosage level. Mice surviving 60 days are considered cured. Toxicity is defined as a decrease in the mean survival time of the treated mice as compared to the control group. Activity is defined as a 100% increase in the mean survival time of the treated mice compared to the control group.

[3] = Staphylococcus aureus isolate I
[4] = Staphylococcus aureus isolate II
[5] = Staphylococcus aureus isolate III
[6] = Staphylococcus aureus isolate IV
[7] = Staphylococcus aureus isolate V
[8] = Neisseria meningitidis isolate 7957
[9] = Neisseria meningitidis isolate 7990
[10] = Neisseria meningitidis isolate 8005
[11] = Neisseria meningitidis isolate 8006
[12] = Neisseria meningitidis isolate 8011
[13] = Group D Enterococcus isolate II
[14] = Group D Enterococcus isolate III
[15] = Group D Enterococcus isolate IV
[16] = Mycobacterium intracellulare strain I
[17] = Mycobacterium intracellulare strain II
[18] = Mycobacterium intracellulare strain III
[19] = Mycobacterium intracellulare strain IV
[20] = Mycobacterium intracellulare strain V
[21] = Mycobacterium intracellulare strain VI

Q: Which MIC (Staphylococcus aureus; [3]) does the source give for CC(=NNC(=S)NCc1ccccc1C)c1ccccn1 [N, 2-Acetylpyridine 4-(2-methylbenzyl)-3-thiosemicarbazone] here?
A: The MIC was 2 µg/mL (≈ 6.7 µM).

Q: And the MIC (Staphylococcus aureus; [4])?
A: Its MIC is 2 µg/mL (≈ 6.7 µM).

Q: What about the MIC (Staphylococcus aureus; [5]) of the same compound?
A: Its MIC is 2 µg/mL (≈ 6.7 µM).

Q: What about the MIC (Staphylococcus aureus; [6]) of the same compound?
A: Its MIC is 2 µg/mL (≈ 6.7 µM).

Q: And the MIC (Staphylococcus aureus; [7])?
A: The MIC was 1 µg/mL (≈ 3.35 µM).

Q: With CC(=NNC(=S)N(CC(C)C)CC(C)C)c1ccccn1 [O, 2-Acetylpyridine 4,4-diisobutyl-3-thiosemicarbazone] as the compound, how does the MIC (Neisseria meningitidis; [8]) read?
A: The MIC was 0.062 µg/mL (≈ 0.202 µM).

Q: And the MIC (Neisseria meningitidis; [9])?
A: Its MIC is 0.125 µg/mL (≈ 0.408 µM).

Q: What about the MIC (Neisseria meningitidis; [10]) of the same compound?
A: The MIC was 0.5 µg/mL (≈ 1.63 µM).

Q: And the MIC (Neisseria meningitidis; [11])?
A: The MIC was 0.062 µg/mL (≈ 0.202 µM).

Q: What about the MIC (Neisseria meningitidis; [12]) of the same compound?
A: The MIC was 0.5 µg/mL (≈ 1.63 µM).

Q: What about the MIC (Staphylococcus aureus; [3]) of the same compound?
A: Its MIC is 0.5 µg/mL (≈ 1.63 µM).

Q: And the MIC (Staphylococcus aureus; [5])?
A: The MIC was 1 µg/mL (≈ 3.26 µM).

Q: And the MIC (Staphylococcus aureus; [6])?
A: The MIC was 0.5 µg/mL (≈ 1.63 µM).

Q: And the MIC (Staphylococcus aureus; [7])?
A: The MIC was 0.5 µg/mL (≈ 1.63 µM).

Q: And the MIC (Group D Enterococcus; Group D Enterococcus isolate I)?
A: The MIC was 2 µg/mL (≈ 6.53 µM).

Q: And the MIC (Group D Enterococcus; [13])?
A: The MIC was 2 µg/mL (≈ 6.53 µM).

Q: What about the MIC (Group D Enterococcus; [14]) of the same compound?
A: The MIC was 2 µg/mL (≈ 6.53 µM).

Q: What about the MIC (Group D Enterococcus; [15]) of the same compound?
A: The MIC was 4 µg/mL (≈ 13.1 µM).

Q: And the MIC (Group D Enterococcus; Group D Enterococcus isolate V)?
A: The MIC was 2 µg/mL (≈ 6.53 µM).

Q: Which results are given for CC(=NNC(=S)NC12CC3CC(CC(C3)C1)C2)c1ccccn1 [S, 2-Acetylpyridine 4-(1-adamantyl)-3-thiosemicarbazone]?
A: MIC (Staphylococcus aureus; [3]): 2 µg/mL (≈ 6.09 µM); MIC (Staphylococcus aureus; [4]): 2 µg/mL (≈ 6.09 µM); MIC (Staphylococcus aureus; [5]): 4 µg/mL (≈ 12.2 µM); MIC (Staphylococcus aureus; [6]): 2 µg/mL (≈ 6.09 µM); MIC (Staphylococcus aureus; [7]): 1 µg/mL (≈ 3.04 µM); MIC [1, 16]: 10 µg/mL (≈ 30.4 µM); MIC [1, 17]: 1 µg/mL (≈ 3.04 µM); MIC [1, 18]: 1 µg/mL (≈ 3.04 µM); MIC [1, 19]: 10 µg/mL (≈ 30.4 µM); MIC [1, 20]: 10 µg/mL (≈ 30.4 µM); MIC [1, 21]: 10 µg/mL (≈ 30.4 µM); MIC (Group D Enterococcus; Group D Enterococcus isolate I): 2 µg/mL (≈ 6.09 µM); MIC (Group D Enterococcus; [13]): 1 µg/mL (≈ 3.04 µM); MIC (Group D Enterococcus; [14]): 2 µg/mL (≈ 6.09 µM); MIC (Group D Enterococcus; [15]): 2 µg/mL (≈ 6.09 µM); MIC (Group D Enterococcus; Group D Enterococcus isolate V): 2 µg/mL (≈ 6.09 µM)

Q: What does the source list for CC(=NNC(=S)N1CCN(c2ccccn2)CC1)c1ccccn1 [V, 1,4-Diaza-4-(2-pyridyl)cyclohexane-1-thiocarboxylic acid 2-[1-(2-pyridyl)ethylidene]hydrazide]?
A: MIC (Neisseria meningitidis; [8]): 0.062 µg/mL (≈ 0.182 µM); MIC (Neisseria meningitidis; [9]): 0.125 µg/mL (≈ 0.367 µM); MIC (Neisseria meningitidis; [10]): 0.125 µg/mL (≈ 0.367 µM); MIC (Neisseria meningitidis; [11]): 0.125 µg/mL (≈ 0.367 µM); MIC (Neisseria meningitidis; [12]): 0.25 µg/mL (≈ 0.734 µM); MIC (Neisseria gonorrhoeae; Neisseria gonorrhoeae isolate 135, read after 24 hours): 0.016 µg/mL (≈ 0.047 µM); MIC (Neisseria gonorrhoeae; Neisseria gonorrhoeae isolate 161, read after 24 hours): < 0.008 µg/mL; MIC (Neisseria gonorrhoeae; Neisseria gonorrhoeae isolate 278, read after 24 hours): 0.031 µg/mL (≈ 0.0911 µM); MIC (Neisseria gonorrhoeae; Neisseria gonorrhoeae isolate 455, read after 24 hours): 0.016 µg/mL (≈ 0.047 µM); MIC (Neisseria gonorrhoeae; Neisseria gonorrhoeae isolate 456, read after 24 hours): 0.016 µg/mL (≈ 0.047 µM); MIC (Neisseria gonorrhoeae; Neisseria gonorrhoeae isolate 602, read after 24 hours): 0.016 µg/mL (≈ 0.047 µM); ED50 ([2]; Plasmodium berghei, computed estimate of the dose required to cure 50% of the mice): 45 mg/kg; In vivo Antimalarial Activity ([2]; mice, Dosage Level 640 mg/kg, C = Cure (cured/treated mice)): Toxic

Q: Which MIC [1, 16] does the source give for CC(=NNC(=S)N1CCCCCCCCCCCC1)c1ccccn1 [Z, 1-Azacyclotridecane-1-thiocarboxylic acid 2-[1-(2-pyridyl)ethylidene]hydrazide] here?
A: The MIC was 10 µg/mL (≈ 27.7 µM).

Q: What about the MIC [1, 17] of the same compound?
A: Its MIC is 1 µg/mL (≈ 2.77 µM).

Q: And the MIC [1, 18]?
A: Its MIC is 1 µg/mL (≈ 2.77 µM).

Q: What about the MIC [1, 19] of the same compound?
A: Its MIC is 10 µg/mL (≈ 27.7 µM).

Q: And the MIC [1, 20]?
A: Its MIC is 10 µg/mL (≈ 27.7 µM).

Q: And the MIC [1, 21]?
A: The MIC was 10 µg/mL (≈ 27.7 µM).

Source: patent publication US4385055A, “2-Acetyl-and 2-propionylpyridine thiosemicarbazones as antimalarials” (The United States of America as represented by the …, priority 1981, dated 1983)
